# Measurements as given in ChEMBL document CHEMBL4011618, “Discovery of Potent, Selective Stem Cell Factor Receptor/Platelet Derived Growth Factor Receptor Alpha (c-KIT/PDGFRα) Dual Inhibitor for the Treatment of Imatinib-Resistant Gastrointestinal Stromal Tumors (GISTs)” (J Med Chem, 2017).
# Columns and labels:
# [1] = target: T1, Platelet-derived growth factor receptor alpha (Homo sapiens, UniProt P16234); assay: Inhibition of PDGFRalpha (unknown origin) using FAM-labeled peptide as substrate preincubated for 10 mins followed by substrate addition in presence of ATP by mobility shift assay
# [2] = target: Vascular endothelial growth factor receptor 2 (Homo sapiens, UniProt P35968)
# Description: Inhibition of VEGFR2 (unknown origin) using FAM-labeled peptide as substrate preincubated for 10 mins followed by substrate addition in presence of ATP by mobility shift assay
# [3] = target: T2, Mast/stem cell growth factor receptor Kit (Homo sapiens, UniProt P10721)
# Description: Inhibition of cKIT (unknown origin) using FAM-labeled peptide as substrate preincubated for 10 mins followed by substrate addition in presence of ATP by mobility shift assay
# [4] = target: T2, Mast/stem cell growth factor receptor Kit; remark: listed apart in the source
# Description: Inhibition of TEL-fused cKIT (unknown origin) expressed in mouse BAF3 cells assessed as cell growth inhibition after 72 hrs by cell titer-glo assay
# [5] = tested on: Mast/stem cell growth factor receptor Kit (Homo sapiens), P10721 [T670I]
# Description: Inhibition of TEL-fused cKIT T670I mutant (unknown origin) expressed in mouse BAF3 cells assessed as cell growth inhibition after 72 hrs by cell titer-glo assay
# [6] = target: T1, Platelet-derived growth factor receptor alpha
# Description: Inhibition of TEL-fused PDGFRalpha (unknown origin) expressed in mouse BAF3 cells assessed as cell growth inhibition after 72 hrs by cell titer-glo assay
# [7] = tested on: Platelet-derived growth factor receptor alpha (Homo sapiens), P16234 [T674I]
# Sequence of Platelet-derived growth factor receptor alpha (Homo sapiens), P16234 [T674I] (P16234 whole entry T674I): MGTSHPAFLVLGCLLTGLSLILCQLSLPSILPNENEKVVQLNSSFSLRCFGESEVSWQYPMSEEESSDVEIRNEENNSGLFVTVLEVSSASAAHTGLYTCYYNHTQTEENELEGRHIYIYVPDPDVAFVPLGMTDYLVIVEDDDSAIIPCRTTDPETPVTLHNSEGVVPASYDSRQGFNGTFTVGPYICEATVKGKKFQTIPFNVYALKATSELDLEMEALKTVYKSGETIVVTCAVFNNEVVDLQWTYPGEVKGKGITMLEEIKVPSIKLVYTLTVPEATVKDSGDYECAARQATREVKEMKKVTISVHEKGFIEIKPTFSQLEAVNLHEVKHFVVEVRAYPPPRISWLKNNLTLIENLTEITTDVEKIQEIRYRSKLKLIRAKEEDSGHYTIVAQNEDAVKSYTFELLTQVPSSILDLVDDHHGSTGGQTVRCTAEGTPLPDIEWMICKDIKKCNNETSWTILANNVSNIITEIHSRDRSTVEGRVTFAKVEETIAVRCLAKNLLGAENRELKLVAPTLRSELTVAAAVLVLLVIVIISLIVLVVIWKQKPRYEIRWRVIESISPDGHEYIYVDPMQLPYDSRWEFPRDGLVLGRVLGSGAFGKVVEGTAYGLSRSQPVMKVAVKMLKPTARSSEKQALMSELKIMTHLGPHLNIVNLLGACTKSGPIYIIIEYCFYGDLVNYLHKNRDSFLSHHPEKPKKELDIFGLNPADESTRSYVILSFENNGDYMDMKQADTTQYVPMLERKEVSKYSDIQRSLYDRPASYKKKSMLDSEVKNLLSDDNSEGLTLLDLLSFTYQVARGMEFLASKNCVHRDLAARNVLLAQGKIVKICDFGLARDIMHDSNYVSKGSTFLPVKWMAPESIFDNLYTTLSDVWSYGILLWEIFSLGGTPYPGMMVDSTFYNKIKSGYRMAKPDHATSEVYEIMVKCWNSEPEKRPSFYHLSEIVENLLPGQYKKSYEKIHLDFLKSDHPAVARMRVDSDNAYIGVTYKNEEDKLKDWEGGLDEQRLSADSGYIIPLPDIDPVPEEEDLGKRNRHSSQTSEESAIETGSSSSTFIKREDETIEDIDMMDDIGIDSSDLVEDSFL
# Description: Inhibition of TEL-fused PDGFRalpha T674I mutant (unknown origin) expressed in mouse BAF3 cells assessed as cell growth inhibition after 72 hrs by cell titer-glo assay
# T1 sequence (P16234 whole entry): as the sequence (P16234 whole entry T674I) above, with I674T counted along it
# Sequence of Vascular endothelial growth factor receptor 2 (P35968 whole entry): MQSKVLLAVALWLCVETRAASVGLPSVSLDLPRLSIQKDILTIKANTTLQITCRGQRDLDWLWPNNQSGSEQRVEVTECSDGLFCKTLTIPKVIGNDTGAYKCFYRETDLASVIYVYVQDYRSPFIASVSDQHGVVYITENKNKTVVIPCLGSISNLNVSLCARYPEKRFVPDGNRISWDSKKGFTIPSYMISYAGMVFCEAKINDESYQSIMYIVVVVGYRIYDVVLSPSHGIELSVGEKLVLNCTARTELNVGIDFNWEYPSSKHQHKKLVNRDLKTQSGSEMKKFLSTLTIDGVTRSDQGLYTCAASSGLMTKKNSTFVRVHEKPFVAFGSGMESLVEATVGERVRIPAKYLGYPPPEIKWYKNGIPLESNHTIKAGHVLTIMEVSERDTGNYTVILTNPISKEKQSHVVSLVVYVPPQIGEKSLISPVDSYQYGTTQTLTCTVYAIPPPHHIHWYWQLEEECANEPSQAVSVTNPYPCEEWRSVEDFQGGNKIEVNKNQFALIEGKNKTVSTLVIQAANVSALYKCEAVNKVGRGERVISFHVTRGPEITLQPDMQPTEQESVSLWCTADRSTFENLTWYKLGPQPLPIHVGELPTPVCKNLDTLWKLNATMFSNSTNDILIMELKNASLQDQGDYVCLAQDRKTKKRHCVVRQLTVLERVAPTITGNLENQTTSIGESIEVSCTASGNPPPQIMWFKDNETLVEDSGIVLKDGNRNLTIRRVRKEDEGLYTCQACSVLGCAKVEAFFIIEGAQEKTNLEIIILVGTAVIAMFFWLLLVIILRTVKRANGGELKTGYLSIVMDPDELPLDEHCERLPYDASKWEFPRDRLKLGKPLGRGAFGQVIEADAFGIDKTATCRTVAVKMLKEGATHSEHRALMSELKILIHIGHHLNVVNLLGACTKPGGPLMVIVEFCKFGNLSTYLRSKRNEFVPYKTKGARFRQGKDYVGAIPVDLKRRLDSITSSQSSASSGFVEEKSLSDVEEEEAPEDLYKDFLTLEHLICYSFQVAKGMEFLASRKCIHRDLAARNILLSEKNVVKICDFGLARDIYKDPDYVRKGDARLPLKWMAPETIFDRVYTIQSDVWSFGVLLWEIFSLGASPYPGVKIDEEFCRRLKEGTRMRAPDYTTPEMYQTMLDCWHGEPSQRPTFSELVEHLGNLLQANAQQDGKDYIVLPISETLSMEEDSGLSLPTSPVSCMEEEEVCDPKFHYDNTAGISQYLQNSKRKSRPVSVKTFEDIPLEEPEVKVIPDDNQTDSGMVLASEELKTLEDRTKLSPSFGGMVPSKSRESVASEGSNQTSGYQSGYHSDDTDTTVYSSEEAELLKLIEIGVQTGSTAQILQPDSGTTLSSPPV
# Sequence of Mast/stem cell growth factor receptor Kit (Homo sapiens), P10721 [T670I] (P10721 whole entry T670I): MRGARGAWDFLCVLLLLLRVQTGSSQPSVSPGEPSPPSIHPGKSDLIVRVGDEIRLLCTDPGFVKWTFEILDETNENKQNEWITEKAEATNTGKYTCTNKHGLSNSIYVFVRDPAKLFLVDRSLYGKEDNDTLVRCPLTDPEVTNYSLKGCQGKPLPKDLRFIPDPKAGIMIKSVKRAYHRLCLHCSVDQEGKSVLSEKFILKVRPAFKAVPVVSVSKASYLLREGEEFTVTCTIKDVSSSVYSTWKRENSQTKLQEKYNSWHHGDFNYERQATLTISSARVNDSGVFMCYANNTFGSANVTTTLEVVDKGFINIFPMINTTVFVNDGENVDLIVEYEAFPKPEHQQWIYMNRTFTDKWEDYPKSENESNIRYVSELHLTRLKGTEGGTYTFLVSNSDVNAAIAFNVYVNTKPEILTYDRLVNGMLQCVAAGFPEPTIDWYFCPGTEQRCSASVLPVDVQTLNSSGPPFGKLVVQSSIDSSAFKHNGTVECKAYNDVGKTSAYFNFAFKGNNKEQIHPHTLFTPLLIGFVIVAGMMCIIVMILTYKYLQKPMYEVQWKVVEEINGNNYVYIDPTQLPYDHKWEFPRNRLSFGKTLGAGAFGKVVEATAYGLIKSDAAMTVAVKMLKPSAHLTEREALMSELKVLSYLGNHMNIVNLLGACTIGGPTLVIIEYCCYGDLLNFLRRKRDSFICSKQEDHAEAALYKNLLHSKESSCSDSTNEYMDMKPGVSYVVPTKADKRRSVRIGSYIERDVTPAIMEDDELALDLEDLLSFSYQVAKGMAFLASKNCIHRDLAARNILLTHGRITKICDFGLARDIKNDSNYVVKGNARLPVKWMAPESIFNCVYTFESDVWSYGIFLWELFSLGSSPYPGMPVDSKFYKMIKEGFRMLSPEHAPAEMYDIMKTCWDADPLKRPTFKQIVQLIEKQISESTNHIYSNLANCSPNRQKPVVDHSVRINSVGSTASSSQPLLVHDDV
# T2 sequence (P10721 whole entry): as the sequence (P10721 whole entry T670I) above, with I670T counted along it
SMILES,IC50 [1],IC50 [2],IC50 [3],GI50 [4],GI50 [5],GI50 [6],GI50 [7]
Cc1n[nH]c2nccc(-c3ccc(NC(=O)NC4CC4)cc3)c12,1130 nM,4520 nM,553 nM,–,–,–,–
Cc1n[nH]c2nccc(-c3ccc(NC(=O)Nc4ccccc4N4CCN(C)CC4)cc3)c12,928 nM,4160 nM,4580 nM,–,–,–,–
Cc1n[nH]c2nccc(-c3ccc(NC(=O)NCC(C)C)cc3)c12,1120 nM,8630 nM,320 nM,–,–,–,–
Cc1ccc(F)c(NC(=O)Nc2ccc(-c3cccc4[nH]nc(N)c34)cc2)c1 [LINIFANIB],15 nM,–,–,88.7 nM,37.1 nM,10.4 nM,104 nM
Cc1n[nH]c2nccc(-c3ccc(NC(=O)NC(C)(C)C)cc3)c12,1470 nM,11400 nM,1420 nM,–,–,–,–
Cc1n[nH]c2nccc(-c3ccc(NC(=O)Nc4cccc(Cl)c4)cc3)c12,182 nM,4050 nM,2400 nM,–,–,–,–
Cc1n[nH]c2nccc(-c3ccc(NC(=O)NC4CCC4)cc3)c12,732 nM,5000 nM,318 nM,–,–,–,–
Cc1cc(NC(=O)Nc2ccc(-c3ccnc4[nH]nc(C)c34)cc2)ccc1N1CCN(C)CC1,127 nM,3700 nM,7.2 nM,–,–,–,–
CCCNC(=O)Nc1ccc(-c2ccnc3[nH]nc(C)c23)cc1,> 50000 nM,> 50000 nM,21400 nM,–,–,–,–
CCc1cccc(NC(=O)Nc2ccc(-c3ccnc4[nH]nc(C(F)(F)F)c34)cc2)c1,> 5000 nM,> 50000 nM,6770 nM,–,–,–,–
Cc1n[nH]c2nccc(-c3ccc(NC(=O)NCCCCc4ccccc4)cc3)c12,135 nM,10900 nM,6.2 nM,–,–,–,–
Cc1cc(N2CCN(C)CC2)ccc1NC(=O)Nc1ccc(-c2ccnc3[nH]nc(C)c23)cc1,1100 nM,6820 nM,2220 nM,–,–,–,–
Cc1n[nH]c2nccc(-c3ccc(NC(=O)Nc4cccc(F)c4)cc3)c12,262 nM,6230 nM,4790 nM,–,–,–,–
Cc1n[nH]c2nccc(-c3ccc(NC(=O)NCc4ccco4)cc3)c12,387 nM,3500 nM,51 nM,–,–,–,–
Cc1n[nH]c2nccc(-c3ccc(NC(=O)NC4Cc5ccccc5C4)cc3)c12,83 nM,> 50000 nM,8.7 nM,–,–,–,–
CCCCCNC(=O)Nc1ccc(-c2ccnc3[nH]nc(C)c23)cc1,164 nM,> 50000 nM,3.5 nM,–,–,–,–
Cc1n[nH]c2nccc(-c3ccc(NC(=O)Nc4ccc5ccccc5c4)cc3)c12,124 nM,> 50000 nM,20 nM,–,–,–,–
Cc1n[nH]c2nccc(-c3ccc(NC(=O)NCc4cccs4)cc3)c12,157 nM,1790 nM,26 nM,–,–,–,–
Cc1n[nH]c2nccc(-c3ccc(NC(=O)Nc4ccc(N(C)C)cc4)cc3)c12,309 nM,9050 nM,9.3 nM,–,–,–,–
CCCCNC(=O)Nc1ccc(-c2ccnc3[nH]nc(C)c23)cc1,43900 nM,> 50000 nM,20600 nM,–,–,–,–
Cc1cccc(NC(=O)Nc2ccc(-c3ccnc4[nH]nc(CO)c34)cc2)c1,87 nM,4920 nM,2.4 nM,1070 nM,1840 nM,10.4 nM,5000 nM
Cc1n[nH]c2nccc(-c3ccc(NC(=O)Nc4cccnc4)cc3)c12,313 nM,3110 nM,14 nM,–,–,–,–
Cc1ccc(NC(=O)Nc2ccc(-c3ccnc4[nH]nc(C)c34)cc2)cc1,65 nM,5610 nM,1830 nM,–,–,–,–

SMILES,IC50 [1],IC50 [2],IC50 [3],GI50 [4],GI50 [5],GI50 [6],GI50 [7]
Cc1n[nH]c2nccc(-c3ccc(NC(=O)Nc4cccc(C#N)c4)cc3)c12,21400 nM,> 50000 nM,201 nM,–,–,–,–
CCc1cccc(NC(=O)Nc2ccc(-c3ccnc4[nH]nc(CO)c34)cc2)c1,32 nM,3360 nM,3.7 nM,–,–,–,–
CCN(CC)c1cccc(NC(=O)Nc2ccc(-c3ccnc4[nH]nc(C)c34)cc2)c1,136 nM,42000 nM,12 nM,–,–,–,–
Cc1n[nH]c2nccc(-c3ccc(NC(=O)Nc4cccc(N5CCN(C)CC5)c4)cc3)c12,215 nM,6240 nM,19 nM,–,–,–,–
Cc1n[nH]c2nccc(-c3ccc(NC(=O)NCc4ccccn4)cc3)c12,472 nM,4080 nM,78 nM,–,–,–,–
Cc1n[nH]c2nccc(-c3ccc(NC(=O)Nc4ccccc4N4CCOCC4)cc3)c12,4080 nM,36900 nM,6440 nM,–,–,–,–
CCc1cccc(NC(=O)Nc2ccc(-c3ccnc4[nH]nc(C)c34)cc2)c1,22 nM,1210 nM,3.9 nM,–,–,–,–
CCCCCCNC(=O)Nc1ccc(-c2ccnc3[nH]nc(C)c23)cc1,27 nM,10500 nM,1.4 nM,3030 nM,1780 nM,10.4 nM,3180 nM
Cc1n[nH]c2nccc(-c3ccc(NC(=O)Nc4ccn[nH]4)cc3)c12,411 nM,2390 nM,120 nM,–,–,–,–
Cc1n[nH]c2nccc(-c3ccc(NC(=O)NCCc4ccccc4)cc3)c12,82 nM,–,3.7 nM,–,–,–,–
Cc1n[nH]c2nccc(-c3ccc(NC(=O)Nc4cccc5ccccc45)cc3)c12,97 nM,> 50000 nM,3.6 nM,–,–,–,–
Cc1n[nH]c2nccc(-c3ccc(NC(=O)Nc4cnc5ccccc5c4)cc3)c12,22 nM,1840 nM,1.9 nM,83.3 nM,217 nM,10.4 nM,1510 nM
Cc1n[nH]c2nccc(-c3ccc(NC(=O)NCc4ccccc4)cc3)c12,> 50000 nM,> 50000 nM,46100 nM,–,–,–,–
Cc1ccc(N2CCN(C)CC2)c(NC(=O)Nc2ccc(-c3ccnc4[nH]nc(C)c34)cc2)c1,1780 nM,3940 nM,1950 nM,–,–,–,–
Cc1cccc(NC(=O)Nc2ccc(-c3ccnc4[nH]nc(C(F)(F)F)c34)cc2)c1,> 50000 nM,> 50000 nM,> 50000 nM,> 10000 nM,> 10000 nM,465 nM,> 10000 nM
Cc1ccc(N2CCOCC2)c(NC(=O)Nc2ccc(-c3ccnc4[nH]nc(C)c34)cc2)c1,18900 nM,26200 nM,397 nM,–,–,–,–
CCN(CC)c1ccc(NC(=O)Nc2ccc(-c3ccnc4[nH]nc(C)c34)cc2)cc1,176 nM,5350 nM,12 nM,–,–,–,–
Cc1n[nH]c2nccc(-c3ccc(NC(=O)Nc4cccc(CN(C)C)c4)cc3)c12,4610 nM,15900 nM,22100 nM,–,–,–,–
Cc1ccccc1NC(=O)Nc1ccc(-c2ccnc3[nH]nc(C)c23)cc1,305 nM,4320 nM,10900 nM,–,–,–,–
Cc1n[nH]c2nccc(-c3ccc(NC(=O)Nc4cccc(N(C)C)c4)cc3)c12,83 nM,6920 nM,2.6 nM,–,–,–,–
Cc1n[nH]c2nccc(-c3ccc(NC(=O)NC4CCCCC4)cc3)c12,> 50000 nM,> 50000 nM,> 50000 nM,–,–,–,–
CCNC(=O)Nc1ccc(-c2ccnc3[nH]nc(C)c23)cc1,> 50000 nM,> 50000 nM,38700 nM,–,–,–,–
Cc1n[nH]c2nccc(-c3ccc(NC(=O)Nc4ccccn4)cc3)c12,401 nM,> 50000 nM,20 nM,–,–,–,–
